In patent US12398119B2, “Piperazine azaspiro derivatives” (PFIZER INC., priority 2018, dated 2025):
Where two headings read alike, the source gives them in different places.

Target: T1, Human M4 mAChR (Homo sapiens, UniProt P08173)
T1 construct: host or cells: HEK293 (Sor-L9 HEK293 human/M4/GloSensor Cell Clone Number 40)
T1 sequence (P08173 1-479): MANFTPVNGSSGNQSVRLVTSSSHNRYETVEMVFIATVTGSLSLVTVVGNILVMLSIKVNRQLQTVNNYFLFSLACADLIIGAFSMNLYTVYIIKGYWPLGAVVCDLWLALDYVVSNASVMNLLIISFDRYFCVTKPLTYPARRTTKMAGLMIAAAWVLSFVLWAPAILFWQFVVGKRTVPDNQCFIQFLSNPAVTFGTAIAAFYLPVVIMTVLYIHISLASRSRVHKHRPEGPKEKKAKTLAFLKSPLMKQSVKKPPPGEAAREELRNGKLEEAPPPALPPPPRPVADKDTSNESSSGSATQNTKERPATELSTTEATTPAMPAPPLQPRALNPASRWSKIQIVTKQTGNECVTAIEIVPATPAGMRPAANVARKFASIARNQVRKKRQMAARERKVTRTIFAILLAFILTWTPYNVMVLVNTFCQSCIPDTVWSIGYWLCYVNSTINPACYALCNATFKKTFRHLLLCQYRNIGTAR
Assay: Muscarinic hM4 Agonist GloSensor cAMP Assay
Format: cell-based
Description: Muscarinic hM4 Agonist GloSensor cAMP Assay Methods
Compounds were prepared in advance of the assay. Test compounds were solubilized in 100% dimethyl sulfoxide (DMSO, Sigma D8418) to a concentration of 30 mM. A 10-point intermediate dilution series using half log dilutions was created in 100% DMSO with a top concentration of 4 mM. The serially diluted compounds were spotted as 200 nL/well in a 384-well plate (Matrix Catalog Number 4325). The final compound concentration range in the assay was […] to 0.3 nM with a final DMSO concentration of 0.25%.
Human M4 mAChR expressing stable cell lines were generated using a parental HEK cell expressing the GloSensor construct (Promega Sor-L9 HEK293 human/M4/GloSensor Cell Clone Number 40). The cells were grown in 90% Dulbecco's Modified Eagle Medium (DMEM, Gibco 11960), 10% fetal bovine serum (FBS, Hyclone CH.30160-03), 1% Penicillin/Streptomycin (Gibco 15070-063), 500 µg/mL Geneticin (Gibco 10131-027), 200 µg/mL Hygromycin B (Invitrogen 10687-010) and 1% Glutamax (Thermo Fisher 35050061).
One day prior to assay, the cells were lifted using dissociation buffer (Gibco 13151-014) and spun in a centrifuge at 250 times gravity for 5 minutes at room temperature. Supernatant was removed and the cell pellet was resuspended in growth media to a concentration of […]. Cells were then added to white poly-d-lysine coated plates (Becton Dickinson 356661) as 40 μL per well (25,000 cells) and incubated overnight (20-24 hours) in a 37° C. humidified incubator with 5% carbon dioxide (C02).
The following day, culture media was removed from the cell plates and replaced with […] equilibration medium containing 88% CO2-independent medium (Invitrogen 18045088), 10% FBS and 2% GloSensor cAMP reagent (Promega E1291) that had been warmed to 37° C. Plates were then covered and incubated for 2 hours at room temperature while protected from light.
To the previously prepared serially diluted compound plates, 200 nL of 4 mM ACh (Sigma A2661, 10 μM final) or 200 nL of 100% DMSO (0.25% final) was added to the positive and negative control wells, respectively. Compound plates were then diluted by adding 16 μL of C02-independent media containing 10% FBS and an EC80 concentration of isoproterenol (Sigma 16504). Prior to compound testing, concentration response curves were run for isoproterenol to determine the EC80 concentration. At the end of the 2 hour equilibration, 10 µL was transferred from the compound plates to the cell plates. The cell plates were incubated an additional 7 minutes at room temperature and then read using a Multi-label EnVision plate reader (Perkin Elmer) for luminescence.
The raw data, expressed as relative light units, was analyzed using Activity Base (IDBS). The percent effect at each compound concentration was calculated based on and relative to the amount of cAMP produced by the positive and negative control wells contained on each assay plate. The positive control wells contained an EC100 concentration of ACh and the negative control wells contained only DMSO. The concentration and % effect values were fit using a four-parameter logistic dose response equation, and the concentration required for 50% effect (EC50) was determined as well as the maximum asymptote of the concentration response curve to define the efficacy.

[1] = Emax: maximum asymptote of concentration response curve, relative to ACh positive control (EC100) and DMSO, geometric mean, read-out: % maximum effect
[2] = HEK293 human/M4/GloSensor cells, EC80 isoproterenol, geometric mean, number of determinations in parentheses, read-out: EC50
[3] = enantiomers reported in footnotes to Table 1, number of determinations in parentheses, read-out: M4 EC50

| Compound | Emax [1] | EC50 [2] | EC50 [3] | Emax (enantiomers reported in footnotes to Table 1, number of determinations in parentheses, read-out: M4 Emax) |
| --- | --- | --- | --- | --- |
| CCOC(=O)N1CC2(CC(N3CCN(c4ncccc4-c4sncc4C)CC3)C2)C1 [Example 31, ethyl 6-{4-[3-(4-methyl-1,2-thiazol-5-yl)pyridin-2-yl]piperazin-1-yl}-2-azaspiro[3.3]heptane-2-carboxylate] | 101% | 13.5 nM |  |  |
| CCOC(=O)N1CC2(CCC(N3CCN(c4ncccc4-c4ccc5nccn5c4)CC3)C2)C1 (stereo not shown) [Example 39, ethyl 6-{4-[3-(imidazo[1,2-a]pyridin-6-yl)pyridin-2-yl]piperazin-1-yl}-2-azaspiro[3.4]octane-2-carboxylate] | 59.6% | 11.7 nM |  |  |
| CCOC(=O)N1CC2(CCC(N3CCN(c4ncccc4-c4ccc(OC)nc4)CC3)C2)C1 (stereo not shown) [Example 38, ethyl 6-[4-(6′-methoxy-3,3′-bipyridin-2-yl)piperazin-1-yl]-2-azaspiro[3.4]octane-2-carboxylate] | 74.7% | 1.17 nM |  |  |
| CCOC(=O)N1CC2(CC[C@@H](N3CCN(c4nccnc4N4CCOCC4)CC3)C2)C1 [Example 42, ethyl (6R)-6-{4-[3-(morpholin-4-yl)pyrazin-2-yl]piperazin-1-yl}-2-azaspiro[3.4]octane-2-carboxylate] | 92.9% | 12.3 nM |  |  |
| CCOC(=O)N1CC2(CC(N3CCN(c4ncccc4-c4ccc(C#N)cn4)CC3)C2)C1 [Example 24, ethyl 6-[4-(5-cyano-2,3′-bipyridin-2′-yl)piperazin-1-yl]-2-azaspiro[3.3]heptane-2-carboxylate] | 70.6% | 53.8 nM |  |  |
| CCOC(=O)N1CC2(CCC(N3CCN(c4ncc(F)cc4-c4cscn4)CC3)C2)C1 (single isomer, unassigned) [Example 26, ethyl 6-{4-[5-fluoro-3-(1,3-thiazol-4-yl)pyridin-2-yl]piperazin-1-yl}-2-azaspiro[3.4]octane-2-carboxylate] | 59.8% | 26.4 nM |  |  |
| CCOC(=O)N1CCC2(CC(N3CCN(c4ncccc4-c4cnn(C)c4)CC3)C2)C1 (stereo not shown) [Example 13, ethyl 2-{4-[3-(1-methyl-1H-pyrazol-4-yl)pyridin-2-yl]piperazin-1-yl}-6-azaspiro[3.4]octane-6-carboxylate] | 92.6% | 4.82 nM |  |  |
| CCOC(=O)N1CC2(CCC(N3CCN(c4ncccc4-c4ccc(C#N)cc4)CC3)C2)C1 (stereo not shown) [Example 53, ethyl 6-(4-(3-(4-cyanophenyl)pyridin-2-yl)piperazin-1-yl)-2-azaspiro[3.4]octane-2-carboxylate] | 97% | 1.75 nM |  |  |
| CCOC(=O)N1CC2(CCC(N3CCN(c4ncccc4-c4cnc(OC)cn4)CC3)C2)C1 (single isomer, unassigned) [Example 3, ethyl 6-{4-[3-(5-methoxypyrazin-2-yl)pyridin-2-yl]piperazin-1-yl}-2-azaspiro[3.4]octane-2-carboxylate] | 83.7% | 3.87 nM |  |  |
| CCOC(=O)N1CC2(CCC(N3CCN(c4ncccc4C)CC3)C2)C1 (single isomer, unassigned) [Example 21, ethyl 6-[4-(3-methylpyridin-2-yl)piperazin-1-yl]-2-azaspiro[3.4]octane-2-carboxylate] | 96.8% | 4.01 nM |  |  |
| CCOC(=O)N1CC2(CC[C@H](N3CCN(c4ncccc4OC)CC3)C2)C1 [Example 7, ethyl (6S)-6-[4-(3-methoxypyridin-2-yl)piperazin-1-yl]-2-azaspiro[3.4]octane-2-carboxylate] | 47.7% | 425 nM |  |  |
| CCOC(=O)N1CC2(CCC(N3CCN(c4ncc(F)cc4-c4cscn4)CC3)C2)C1 (single isomer, unassigned) [enantiomer of Example 26, ethyl 6-{4-[5-fluoro-3-(1,3-thiazol-4-yl)pyridin-2-yl]piperazin-1-yl}-2-azaspiro[3.4]octane-2-carboxylate] |  |  | 152 nM | 67.1% |
| CCOC(=O)N1CC2(CCC(N3CCN(c4ncccc4N4CCC(F)(F)C4)CC3)C2)C1 (stereo not shown) [Example 29, ethyl 6-{4-[3-(3,3-difluoropyrrolidin-1-yl)pyridin-2-yl]piperazin-1-yl}-2-azaspiro[3.4]octane-2-carboxylate] | 84% | 4.45 nM |  |  |
| CCOC(=O)N1CC2(CC[C@@H](N3CCN(c4ncccc4OC)CC3)C2)C1 [Example 6, ethyl (6R)-6-[4-(3-methoxypyridin-2-yl)piperazin-1-yl]-2-azaspiro[3.4]octane-2-carboxylate] | 86.3% | 1.57 nM |  |  |
| CCOC(=O)N1CC2(CC[C@@H](N3CCN(c4ncccc4N4CC5(COC5)C4)CC3)C2)C1 [Example 44, ethyl (6R)-6-{4-[3-(2-oxa-6-azaspiro[3.3]hept-6-yl)pyridin-2-yl]piperazin-1-yl}-2-azaspiro[3.4]octane-2-carboxylate] | 92.5% | 1 nM |  |  |
| CCOC(=O)N1CC2(CCC(N3CCN(c4ncccc4-c4cnsn4)CC3)C2)C1 (stereo not shown) [Example 33, ethyl 6-{4-[3-(1,2,5-thiadiazol-3-yl)pyridin-2-yl]piperazin-1-yl}-2-azaspiro[3.4]octane-2-carboxylate] | 92.3% | 1.31 nM |  |  |
| CCOC(=O)N1CC2(CCC(N3CCN(c4ncccc4-c4nccnc4C)CC3)C2)C1 (stereo not shown) [Example 15, ethyl 6-{4-[3-(3-methylpyrazin-2-yl)pyridin-2-yl]piperazin-1-yl}-2-azaspiro[3.4]octane-2-carboxylate] | 58.5% | 17.3 nM |  |  |
| CCOC(=O)N1CC2(CCC(N3CCN(c4ncccc4-c4cnc(C#N)cn4)CC3)C2)C1 (single isomer, unassigned) [Example 41, ethyl 6-{4-[3-(5-cyanopyrazin-2-yl)pyridin-2-yl]piperazin-1-yl}-2-azaspiro[3.4]octane-2-carboxylate] | 82.4% | 8.52 nM |  |  |
| CCOC(=O)N1CC2(CC[C@@H](N3CCN(c4ncccc4-c4nncs4)CC3)C2)C1 [Example 5, ethyl (6R)-6-{4-[3-(1,3,4-thiadiazol-2-yl)pyridin-2-yl]piperazin-1-yl}-2-azaspiro[3.4]octane-2-carboxylate] | 46.4% | 1.6 nM |  |  |
| CCOC(=O)N1CCC2(CC(N3CCN(c4ncccc4-c4ccc(C#N)cn4)CC3)C2)C1 (single isomer, unassigned) [enantiomer of Example 23, ethyl 2-[4-(5-cyano-2,3′-bipyridin-2′-yl)piperazin-1-yl]-6-azaspiro[3.4]octane-6-carboxylate] |  |  | > 10000 nM |  |
| CCOC(=O)N1CC2(CCC(N3CCN(c4ncccc4-c4cnsn4)CC3)C2)C1 (single isomer, unassigned) [Example 34, ethyl 6-{4-[3-(1,2,5-thiadiazol-3-yl)pyridin-2-yl]piperazin-1-yl}-2-azaspiro[3.4]octane-2-carboxylate] | 96.2% | 1.28 nM |  |  |
| CCOC(=O)N1CC2(CC(N3CCN(c4ncccc4-c4cc(C)ns4)CC3)C2)C1 [Example 32, ethyl 6-{4-[3-(3-methyl-1,2-thiazol-5-yl)pyridin-2-yl]piperazin-1-yl}-2-azaspiro[3.3]heptane-2-carboxylate] | 84.3% | 27.8 nM |  |  |
